# Results reported in patent US10710978B2, “STK4 inhibitors for treatment of hematologic malignancies” (Dana-Farber Cancer Institute, Inc., priority 2015, dated 2020).
# Where two headings read alike, the source gives them in different places.
# Columns and labels:
# Assay in all cases: KiNativ assay
# Type in all cases: binding
# PIK3CG = PIK3CG (Homo sapiens (Human), UniProt P48736); settings: H929 live cell
# Procedure: (§1) Biochemical IC50s of the compounds of the present disclosure against various kinases were measured in a KiNativ assay. Compounds were screened in duplicate at 10 μM in H929 live cell. IC50 was measured via Mass spectroscopy (MS).
# DGKH = DGKH (Homo sapiens (Human), UniProt Q86XP1); settings: H929 live cell
# Sequence of DGKH (Q86XP1 whole entry): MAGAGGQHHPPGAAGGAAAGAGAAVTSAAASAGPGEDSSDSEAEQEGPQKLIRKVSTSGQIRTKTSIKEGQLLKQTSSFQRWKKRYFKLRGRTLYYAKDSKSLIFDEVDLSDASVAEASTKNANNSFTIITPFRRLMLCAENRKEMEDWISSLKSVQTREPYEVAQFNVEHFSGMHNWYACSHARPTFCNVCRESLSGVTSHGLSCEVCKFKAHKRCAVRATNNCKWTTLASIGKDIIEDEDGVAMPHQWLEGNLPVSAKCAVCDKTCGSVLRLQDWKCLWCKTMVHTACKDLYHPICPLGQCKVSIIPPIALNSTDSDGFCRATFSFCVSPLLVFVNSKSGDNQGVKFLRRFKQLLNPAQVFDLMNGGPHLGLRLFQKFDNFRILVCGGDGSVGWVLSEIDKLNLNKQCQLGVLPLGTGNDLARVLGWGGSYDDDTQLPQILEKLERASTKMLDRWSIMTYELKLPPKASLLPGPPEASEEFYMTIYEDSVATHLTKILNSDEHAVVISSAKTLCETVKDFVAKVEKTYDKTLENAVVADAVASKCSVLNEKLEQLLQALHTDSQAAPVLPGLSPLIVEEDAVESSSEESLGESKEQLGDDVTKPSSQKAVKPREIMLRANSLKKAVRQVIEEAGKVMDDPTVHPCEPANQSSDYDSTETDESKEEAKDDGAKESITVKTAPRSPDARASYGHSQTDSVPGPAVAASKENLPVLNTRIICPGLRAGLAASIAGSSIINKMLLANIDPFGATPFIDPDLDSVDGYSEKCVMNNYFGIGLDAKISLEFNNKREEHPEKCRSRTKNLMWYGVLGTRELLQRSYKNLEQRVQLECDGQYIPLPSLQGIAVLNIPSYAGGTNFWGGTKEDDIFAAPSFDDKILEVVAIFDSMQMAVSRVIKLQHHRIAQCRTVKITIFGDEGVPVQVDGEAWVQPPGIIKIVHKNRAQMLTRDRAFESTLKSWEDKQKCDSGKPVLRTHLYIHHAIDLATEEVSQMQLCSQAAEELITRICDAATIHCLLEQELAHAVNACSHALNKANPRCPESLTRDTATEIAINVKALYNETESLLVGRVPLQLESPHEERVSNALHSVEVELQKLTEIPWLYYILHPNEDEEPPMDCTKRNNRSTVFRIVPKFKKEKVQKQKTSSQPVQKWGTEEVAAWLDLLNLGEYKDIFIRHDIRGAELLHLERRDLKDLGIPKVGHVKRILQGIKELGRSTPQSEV
# Procedure: as §1
# [1] = system: ZC1/HGK, ZC2/TNIK, ZC3/MINK; settings: H929 live cell; for % inhibition: 10 μM, range class
# Procedure: as §1
# IRAK4 = IRAK4 (Homo sapiens (Human), UniProt Q9NWZ3); settings: H929 live cell
# Procedure: as §1
# GSK3B = GSK3B (Homo sapiens (Human), UniProt P49841); settings: H929 live cell
# Procedure: as §1
# LYN = LYN (Homo sapiens (Human), UniProt P07948); settings: H929 live cell
# Procedure: as §1
# KHS1 = KHS1 (Homo sapiens (Human), UniProt Q9Y4K4); settings: H929 live cell
# Procedure: as §1
# OSR1 = OSR1 (Homo sapiens (Human), UniProt O95747); settings: H929 live cell
# Procedure: as §1
# CaMKK2 = CaMKK2 (Homo sapiens (Human), UniProt Q96RR4); settings: H929 live cell
# Procedure: as §1
# MAP2K5 = MAP2K5 (Homo sapiens (Human), UniProt Q13163); settings: H929 live cell
# Procedure: as §1
# STLK3 = STLK3 (Homo sapiens (Human), UniProt Q9UEW8); settings: H929 live cell
# Procedure: as §1
# LATS1 = LATS1 (Homo sapiens (Human), UniProt O95835); settings: H929 live cell
# Procedure: as §1
# CDK5 = CDK5 (Homo sapiens (Human), UniProt Q00535); settings: H929 live cell
# Sequence of CDK5 (Q00535 whole entry): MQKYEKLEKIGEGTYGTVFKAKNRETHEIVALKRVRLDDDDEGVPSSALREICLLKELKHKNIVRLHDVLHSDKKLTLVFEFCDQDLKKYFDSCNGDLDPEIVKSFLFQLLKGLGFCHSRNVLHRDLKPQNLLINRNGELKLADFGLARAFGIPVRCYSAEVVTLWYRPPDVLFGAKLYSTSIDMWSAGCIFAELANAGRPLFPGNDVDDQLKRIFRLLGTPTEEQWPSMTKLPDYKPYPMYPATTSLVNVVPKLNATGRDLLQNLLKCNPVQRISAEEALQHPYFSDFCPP
# Procedure: as §1
# CaMK2g = CaMK2g (Homo sapiens (Human), UniProt Q13555); settings: H929 live cell
# Procedure: as §1
# MST4, YSK1 = settings: H929 live cell; for % inhibition: 10 μM, range class
# Procedure: as §1
# SGK3 = SGK3 (Homo sapiens (Human), UniProt Q96BR1); settings: H929 live cell
# Procedure: as §1
# MST2 = MST2 (Homo sapiens (Human), UniProt Q13188); settings: H929 live cell
# Procedure: as §1
# PFTAIRE1 = PFTAIRE1 (Homo sapiens (Human), UniProt O94921); settings: H929 live cell
# Procedure: as §1
# MAP3K5 = MAP3K5 (Homo sapiens (Human), UniProt Q99683); settings: H929 live cell
# Sequence of MAP3K5 (Q99683 whole entry): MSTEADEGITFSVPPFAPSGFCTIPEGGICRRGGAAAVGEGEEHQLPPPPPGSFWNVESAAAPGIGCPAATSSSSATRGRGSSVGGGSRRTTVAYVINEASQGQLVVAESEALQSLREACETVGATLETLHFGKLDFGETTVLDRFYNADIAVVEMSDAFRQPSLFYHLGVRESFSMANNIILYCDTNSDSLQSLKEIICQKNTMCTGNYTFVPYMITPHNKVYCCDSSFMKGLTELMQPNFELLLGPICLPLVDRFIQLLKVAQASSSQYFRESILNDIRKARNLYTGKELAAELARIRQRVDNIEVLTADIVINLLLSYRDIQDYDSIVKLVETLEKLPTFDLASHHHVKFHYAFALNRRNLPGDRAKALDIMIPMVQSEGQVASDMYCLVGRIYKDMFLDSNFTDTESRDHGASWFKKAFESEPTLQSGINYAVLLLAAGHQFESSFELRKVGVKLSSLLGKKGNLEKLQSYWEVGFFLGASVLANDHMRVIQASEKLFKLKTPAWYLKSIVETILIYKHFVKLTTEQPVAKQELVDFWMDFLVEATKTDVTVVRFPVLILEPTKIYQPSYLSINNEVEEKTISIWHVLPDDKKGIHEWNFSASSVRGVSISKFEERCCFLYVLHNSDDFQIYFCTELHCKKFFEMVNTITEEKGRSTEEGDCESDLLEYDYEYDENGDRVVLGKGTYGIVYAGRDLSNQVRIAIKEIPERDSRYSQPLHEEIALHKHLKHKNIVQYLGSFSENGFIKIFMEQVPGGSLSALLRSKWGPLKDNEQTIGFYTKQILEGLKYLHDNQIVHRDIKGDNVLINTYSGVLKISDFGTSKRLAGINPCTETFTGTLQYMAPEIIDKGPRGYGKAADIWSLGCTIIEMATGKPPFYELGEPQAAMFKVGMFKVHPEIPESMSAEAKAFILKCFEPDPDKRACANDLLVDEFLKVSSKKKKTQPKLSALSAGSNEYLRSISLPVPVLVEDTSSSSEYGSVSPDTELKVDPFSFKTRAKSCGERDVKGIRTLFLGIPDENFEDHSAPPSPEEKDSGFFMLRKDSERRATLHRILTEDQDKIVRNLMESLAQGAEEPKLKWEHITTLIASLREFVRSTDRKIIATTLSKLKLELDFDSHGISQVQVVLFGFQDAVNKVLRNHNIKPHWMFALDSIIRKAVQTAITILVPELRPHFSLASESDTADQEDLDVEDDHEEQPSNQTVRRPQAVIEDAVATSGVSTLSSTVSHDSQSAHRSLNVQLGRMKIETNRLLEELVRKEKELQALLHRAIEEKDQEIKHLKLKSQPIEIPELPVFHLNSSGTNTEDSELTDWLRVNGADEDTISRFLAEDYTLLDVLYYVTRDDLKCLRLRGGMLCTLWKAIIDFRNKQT
# Procedure: as §1
# PKR = PKR (Homo sapiens (Human), UniProt P19525); settings: H929 live cell
# Sequence of PKR (P19525 whole entry): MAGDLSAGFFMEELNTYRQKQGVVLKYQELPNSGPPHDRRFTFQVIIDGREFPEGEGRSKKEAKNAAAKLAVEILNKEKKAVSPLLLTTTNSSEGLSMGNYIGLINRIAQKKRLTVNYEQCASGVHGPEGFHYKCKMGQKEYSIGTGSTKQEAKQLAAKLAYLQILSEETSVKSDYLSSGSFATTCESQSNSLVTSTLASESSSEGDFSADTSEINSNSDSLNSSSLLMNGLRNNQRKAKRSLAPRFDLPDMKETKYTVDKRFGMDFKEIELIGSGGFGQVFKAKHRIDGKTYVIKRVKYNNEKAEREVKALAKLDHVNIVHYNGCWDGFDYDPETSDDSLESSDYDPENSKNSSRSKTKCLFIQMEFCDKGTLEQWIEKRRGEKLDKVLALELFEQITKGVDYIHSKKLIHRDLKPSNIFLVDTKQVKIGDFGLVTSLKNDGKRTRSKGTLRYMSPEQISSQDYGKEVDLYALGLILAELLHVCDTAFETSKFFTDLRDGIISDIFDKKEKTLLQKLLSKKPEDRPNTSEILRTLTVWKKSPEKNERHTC
# Procedure: as §1
# FRAP = FRAP (Homo sapiens (Human), UniProt P42345); settings: H929 live cell
# Procedure: as §1
# ACK = ACK (Homo sapiens (Human), UniProt Q07912); settings: H929 live cell
# Sequence of ACK (Q07912 whole entry): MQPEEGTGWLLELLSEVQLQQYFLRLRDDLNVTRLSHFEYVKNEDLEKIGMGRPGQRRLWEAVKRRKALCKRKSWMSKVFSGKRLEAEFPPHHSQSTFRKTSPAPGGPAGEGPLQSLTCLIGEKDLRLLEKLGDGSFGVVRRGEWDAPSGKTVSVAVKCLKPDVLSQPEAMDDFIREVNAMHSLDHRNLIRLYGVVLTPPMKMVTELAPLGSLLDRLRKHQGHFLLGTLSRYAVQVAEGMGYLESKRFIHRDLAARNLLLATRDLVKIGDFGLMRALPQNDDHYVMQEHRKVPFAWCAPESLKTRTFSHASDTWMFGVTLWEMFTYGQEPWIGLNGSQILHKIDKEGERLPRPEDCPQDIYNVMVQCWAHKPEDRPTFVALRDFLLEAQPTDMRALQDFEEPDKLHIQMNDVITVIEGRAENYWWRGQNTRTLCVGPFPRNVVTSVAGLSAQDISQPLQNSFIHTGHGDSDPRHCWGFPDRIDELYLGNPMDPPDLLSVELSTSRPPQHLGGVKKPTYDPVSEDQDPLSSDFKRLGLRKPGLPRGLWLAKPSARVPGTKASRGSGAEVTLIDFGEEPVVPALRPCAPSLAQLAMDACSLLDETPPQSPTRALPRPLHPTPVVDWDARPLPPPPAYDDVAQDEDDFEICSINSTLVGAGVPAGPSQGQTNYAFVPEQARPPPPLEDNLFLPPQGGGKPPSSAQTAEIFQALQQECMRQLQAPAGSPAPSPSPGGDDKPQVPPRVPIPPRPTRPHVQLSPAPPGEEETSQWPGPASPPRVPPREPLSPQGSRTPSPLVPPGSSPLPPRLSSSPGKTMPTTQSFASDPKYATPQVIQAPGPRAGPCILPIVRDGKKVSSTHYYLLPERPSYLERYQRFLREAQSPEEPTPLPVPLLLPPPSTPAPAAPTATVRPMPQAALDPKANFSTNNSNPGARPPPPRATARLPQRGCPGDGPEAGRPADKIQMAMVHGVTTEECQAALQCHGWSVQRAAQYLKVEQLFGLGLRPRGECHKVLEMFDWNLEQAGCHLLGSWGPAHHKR
# Procedure: as §1
# NEK4 = NEK4 (Homo sapiens (Human), UniProt P51957); settings: H929 live cell
# Procedure: as §1
# NEK6, NEK7 = settings: H929 live cell; for % inhibition: 10 μM, range class
# Procedure: as §1
# MPSK1 = MPSK1 (Homo sapiens (Human), UniProt O75716); settings: H929 live cell
# Sequence of MPSK1 (O75716 whole entry): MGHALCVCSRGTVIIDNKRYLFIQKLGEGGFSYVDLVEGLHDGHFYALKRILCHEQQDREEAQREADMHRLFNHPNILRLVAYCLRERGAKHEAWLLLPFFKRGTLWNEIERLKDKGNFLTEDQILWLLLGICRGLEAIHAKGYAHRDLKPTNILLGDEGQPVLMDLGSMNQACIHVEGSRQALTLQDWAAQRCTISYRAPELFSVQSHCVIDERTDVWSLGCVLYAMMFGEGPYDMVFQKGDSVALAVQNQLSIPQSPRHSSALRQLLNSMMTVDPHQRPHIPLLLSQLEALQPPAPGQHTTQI
# Procedure: as §1
# JAK1 domain1 = JAK1 domain1 (Homo sapiens (Human), UniProt P23458); settings: H929 live cell
# Procedure: as §1
# CDC2 = CDC2 (Homo sapiens (Human), UniProt P06493); settings: H929 live cell
# Sequence of CDC2 (P06493 whole entry): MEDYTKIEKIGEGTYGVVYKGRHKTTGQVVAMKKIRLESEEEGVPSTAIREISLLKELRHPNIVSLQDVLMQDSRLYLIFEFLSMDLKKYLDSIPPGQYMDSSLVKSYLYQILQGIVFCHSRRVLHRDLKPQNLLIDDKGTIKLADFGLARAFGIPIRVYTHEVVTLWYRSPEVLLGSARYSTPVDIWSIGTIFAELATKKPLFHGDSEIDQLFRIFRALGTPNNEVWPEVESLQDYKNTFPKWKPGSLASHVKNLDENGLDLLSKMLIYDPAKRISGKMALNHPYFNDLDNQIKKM
# Procedure: as §1
# IKKa = IKKa (Homo sapiens (Human), UniProt O15111); settings: H929 live cell
# Procedure: as §1
# STLK5 = STLK5 (Homo sapiens (Human), UniProt Q7RTN6); settings: H929 live cell
# Procedure: as §1
# CK1g3 = CK1g3 (Homo sapiens (Human), UniProt Q9Y6M4); settings: H929 live cell
# Procedure: as §1
# JNK1, JNK2, JNK3 = settings: H929 live cell; for % inhibition: 10 μM, range class
# Procedure: as §1
# ULK1 = ULK1 (Homo sapiens (Human), UniProt O75385); settings: H929 live cell
# Procedure: as §1
# PKCi = PKCi (Homo sapiens (Human), UniProt P41743); settings: H929 live cell
# Procedure: as §1
# [2] = range class, read-out: % inhibition
smiles,measurement,setting,value
"Nc1ncc(-c2ccc(NS(=O)(=O)C3CC3)cc2F)cc1-c1ccc2c(c1)CCNC2=O [Compound I-51, N-(4-(6-amino-5-(1-oxo-1,2,3,4-tetrahydroisoquinolin-6-yl)pyridin-3-yl)-3-fluorophenyl) cyclopropanesulfonamide]",inhibition at 10 µM,PIK3CG; [2],0%
same,inhibition at 10 µM,PIK3CG; read-out: inhibition (10 μM),-146%
same,inhibition at 10 µM,DGKH; [2],0%
same,inhibition at 10 µM,DGKH; read-out: inhibition (10 μM),2.7%
same,% inhibition,[1],>90%
same,inhibition (10 μM),[1],97.2%
same,inhibition at 10 µM,IRAK4; [2],0%
same,inhibition at 10 µM,IRAK4; read-out: inhibition (10 μM),16.4%
same,inhibition at 10 µM,GSK3B; [2],> 90%
same,inhibition at 10 µM,GSK3B; read-out: inhibition (10 μM),90.2%
same,inhibition at 10 µM,LYN; [2],0%
same,inhibition at 10 µM,LYN; read-out: inhibition (10 μM),-21.9%
same,inhibition at 10 µM,KHS1; [2],50 to 75%
same,inhibition at 10 µM,KHS1; read-out: inhibition (10 μM),72.7%
same,inhibition at 10 µM,OSR1; [2],0%
same,inhibition at 10 µM,OSR1; read-out: inhibition (10 μM),8.8%
same,inhibition at 10 µM,CaMKK2; [2],75 to 90%
same,inhibition at 10 µM,CaMKK2; read-out: inhibition (10 μM),78.5%
same,inhibition at 10 µM,MAP2K5; [2],0%
same,inhibition at 10 µM,MAP2K5; read-out: inhibition (10 μM),-4%
same,inhibition at 10 µM,STLK3; [2],0%
same,inhibition at 10 µM,STLK3; read-out: inhibition (10 μM),-5%
same,inhibition at 10 µM,LATS1; [2],0%
same,inhibition at 10 µM,LATS1; read-out: inhibition (10 μM),3.9%
same,inhibition at 10 µM,CDK5; [2],35 to 40%
same,inhibition at 10 µM,CDK5; read-out: inhibition (10 μM),37.2%
same,inhibition at 10 µM,CaMK2g; [2],0%
same,inhibition at 10 µM,CaMK2g; read-out: inhibition (10 μM),-6.4%
same,% inhibition,"MST4, YSK1",50-75%
same,inhibition (10 μM),"MST4, YSK1",68.1%
same,inhibition at 10 µM,SGK3; [2],0%
same,inhibition at 10 µM,SGK3; read-out: inhibition (10 μM),26.3%
same,inhibition at 10 µM,MST2; [2],> 90%
same,inhibition at 10 µM,MST2; read-out: inhibition (10 μM),95.3%
same,inhibition at 10 µM,PFTAIRE1; [2],0%
same,inhibition at 10 µM,PFTAIRE1; read-out: inhibition (10 μM),8.8%
same,inhibition at 10 µM,MAP3K5; [2],0%
same,inhibition at 10 µM,MAP3K5; read-out: inhibition (10 μM),16.3%
same,inhibition at 10 µM,PKR; [2],0%
same,inhibition at 10 µM,PKR; read-out: inhibition (10 μM),3.8%
same,inhibition at 10 µM,FRAP; [2],0%
same,inhibition at 10 µM,FRAP; read-out: inhibition (10 μM),25.1%
same,inhibition at 10 µM,ACK; [2],0%
same,inhibition at 10 µM,ACK; read-out: inhibition (10 μM),-39%
same,inhibition at 10 µM,NEK4; [2],0%
same,inhibition at 10 µM,NEK4; read-out: inhibition (10 μM),25.8%
same,% inhibition,"NEK6, NEK7",0.0%
same,inhibition (10 μM),"NEK6, NEK7",−63.6%
same,inhibition at 10 µM,MPSK1; [2],35 to 40%
same,inhibition at 10 µM,MPSK1; read-out: inhibition (10 μM),43.9%
same,inhibition at 10 µM,JAK1 domain1; [2],0%
same,inhibition at 10 µM,JAK1 domain1; read-out: inhibition (10 μM),-8.2%
same,inhibition at 10 µM,CDC2; [2],0%
same,inhibition at 10 µM,CDC2; read-out: inhibition (10 μM),18.5%
same,inhibition at 10 µM,IKKa; [2],0%
same,inhibition at 10 µM,IKKa; read-out: inhibition (10 μM),-17.3%
same,inhibition at 10 µM,STLK5; [2],0%
same,inhibition at 10 µM,STLK5; read-out: inhibition (10 μM),-17.1%
same,inhibition at 10 µM,CK1g3; [2],75 to 90%
same,inhibition at 10 µM,CK1g3; read-out: inhibition (10 μM),88.2%
same,% inhibition,"JNK1, JNK2, JNK3",0.0%
same,inhibition (10 μM),"JNK1, JNK2, JNK3",29.3%
same,inhibition at 10 µM,ULK1; [2],35 to 40%
same,inhibition at 10 µM,ULK1; read-out: inhibition (10 μM),40%
same,inhibition at 10 µM,PKCi; [2],0%
same,inhibition at 10 µM,PKCi; read-out: inhibition (10 μM),-49.1%
"Nc1ncc(-c2ccc(NS(=O)(=O)C3CC3)cc2OC2CCCCC2)cc1-c1ccc2c(c1)CCNC2=O [Compound I-65, N-(4-(6-amino-5-(1-oxo-1,2,3,4-tetrahydroisoquinolin-6-yl)pyridin-3-yl)-3-(cyclohexyloxy)phenyl) cyclopropanesulfonamide]",inhibition at 10 µM,PIK3CG; [2],0%
same,inhibition at 10 µM,PIK3CG; read-out: inhibition (10 μM),-64%
same,inhibition at 10 µM,DGKH; [2],0%
same,inhibition at 10 µM,DGKH; read-out: inhibition (10 μM),7.3%
same,% inhibition,[1],>90%
same,inhibition (10 μM),[1],96.6%
same,inhibition at 10 µM,IRAK4; [2],0%
same,inhibition at 10 µM,IRAK4; read-out: inhibition (10 μM),32.9%
same,inhibition at 10 µM,GSK3B; [2],> 90%
same,inhibition at 10 µM,GSK3B; read-out: inhibition (10 μM),90%
same,inhibition at 10 µM,LYN; [2],0%
same,inhibition at 10 µM,LYN; read-out: inhibition (10 μM),-1.3%
same,inhibition at 10 µM,KHS1; [2],50 to 75%
same,inhibition at 10 µM,KHS1; read-out: inhibition (10 μM),73.3%
same,inhibition at 10 µM,OSR1; [2],0%
same,inhibition at 10 µM,OSR1; read-out: inhibition (10 μM),26.8%
same,inhibition at 10 µM,CaMKK2; [2],75 to 90%
same,inhibition at 10 µM,CaMKK2; read-out: inhibition (10 μM),85.6%
same,inhibition at 10 µM,MAP2K5; [2],0%
same,inhibition at 10 µM,MAP2K5; read-out: inhibition (10 μM),15%
same,inhibition at 10 µM,STLK3; [2],0%
same,inhibition at 10 µM,STLK3; read-out: inhibition (10 μM),31.4%
same,inhibition at 10 µM,LATS1; [2],0%
same,inhibition at 10 µM,LATS1; read-out: inhibition (10 μM),33.8%
same,inhibition at 10 µM,CDK5; [2],0%
same,inhibition at 10 µM,CDK5; read-out: inhibition (10 μM),4.9%
same,inhibition at 10 µM,CaMK2g; [2],0%
same,inhibition at 10 µM,CaMK2g; read-out: inhibition (10 μM),-12%
same,% inhibition,"MST4, YSK1",35-40%
same,inhibition (10 μM),"MST4, YSK1",46.3%
same,inhibition at 10 µM,SGK3; [2],0%
same,inhibition at 10 µM,SGK3; read-out: inhibition (10 μM),13.5%
same,inhibition at 10 µM,MST2; [2],> 90%
same,inhibition at 10 µM,MST2; read-out: inhibition (10 μM),97.3%
same,inhibition at 10 µM,PFTAIRE1; [2],0%
same,inhibition at 10 µM,PFTAIRE1; read-out: inhibition (10 μM),-5.1%
same,inhibition at 10 µM,MAP3K5; [2],0%
same,inhibition at 10 µM,MAP3K5; read-out: inhibition (10 μM),-12.4%
same,inhibition at 10 µM,PKR; [2],0%
same,inhibition at 10 µM,PKR; read-out: inhibition (10 μM),-7.6%
same,inhibition at 10 µM,FRAP; [2],35 to 40%
same,inhibition at 10 µM,FRAP; read-out: inhibition (10 μM),47.9%
same,inhibition at 10 µM,ACK; [2],0%
same,inhibition at 10 µM,ACK; read-out: inhibition (10 μM),30.7%
same,inhibition at 10 µM,NEK4; [2],0%
same,inhibition at 10 µM,NEK4; read-out: inhibition (10 μM),23.7%
same,% inhibition,"NEK6, NEK7",0.0%
same,inhibition (10 μM),"NEK6, NEK7",−78.6%
same,inhibition at 10 µM,MPSK1; [2],50 to 75%
same,inhibition at 10 µM,MPSK1; read-out: inhibition (10 μM),72.8%
same,inhibition at 10 µM,JAK1 domain1; [2],0%
same,inhibition at 10 µM,JAK1 domain1; read-out: inhibition (10 μM),2.1%
same,inhibition at 10 µM,CDC2; [2],0%
same,inhibition at 10 µM,CDC2; read-out: inhibition (10 μM),-0.5%
same,inhibition at 10 µM,IKKa; [2],0%
same,inhibition at 10 µM,IKKa; read-out: inhibition (10 μM),-34.3%
same,inhibition at 10 µM,STLK5; [2],0%
same,inhibition at 10 µM,STLK5; read-out: inhibition (10 μM),-38.6%
same,inhibition at 10 µM,CK1g3; [2],75 to 90%
same,inhibition at 10 µM,CK1g3; read-out: inhibition (10 μM),87.2%
same,% inhibition,"JNK1, JNK2, JNK3",0.0%
same,inhibition (10 μM),"JNK1, JNK2, JNK3",6.4%
same,inhibition at 10 µM,ULK1; [2],0%
same,inhibition at 10 µM,ULK1; read-out: inhibition (10 μM),22.2%
same,inhibition at 10 µM,PKCi; [2],0%
same,inhibition at 10 µM,PKCi; read-out: inhibition (10 μM),-41.2%
